In US6869964B2, “Heterocyclicsulfonamide hepatitis C virus inhibitors” (Bristol-Myers Squibb Company, priority 2002, dated 2005):

Experiments:
[1] = target: T1, HCV NS3/4A protease complex (BMS strain) (Hepatitis C virus genotype 1a, UniProt P27958, C1454S); assay: Recombinant HCV NS3/4A protease complex FRET peptide assay, BMS strain; type: biochemical, HCV genotype 1a; details: NS3/4A BMS Strain, activity range; read-out: IC50 a, b, c (Activity Table)
T1 construct: HCV NS3/4A protease complex (amino acids 1027 to 1711); inferred from pET21b vector and Ni-NTA purification; made in house; host or cells: Escherichia coli BL21 (DE3), pET21b
T1 sequence (P27958 1027-1657 C1454S): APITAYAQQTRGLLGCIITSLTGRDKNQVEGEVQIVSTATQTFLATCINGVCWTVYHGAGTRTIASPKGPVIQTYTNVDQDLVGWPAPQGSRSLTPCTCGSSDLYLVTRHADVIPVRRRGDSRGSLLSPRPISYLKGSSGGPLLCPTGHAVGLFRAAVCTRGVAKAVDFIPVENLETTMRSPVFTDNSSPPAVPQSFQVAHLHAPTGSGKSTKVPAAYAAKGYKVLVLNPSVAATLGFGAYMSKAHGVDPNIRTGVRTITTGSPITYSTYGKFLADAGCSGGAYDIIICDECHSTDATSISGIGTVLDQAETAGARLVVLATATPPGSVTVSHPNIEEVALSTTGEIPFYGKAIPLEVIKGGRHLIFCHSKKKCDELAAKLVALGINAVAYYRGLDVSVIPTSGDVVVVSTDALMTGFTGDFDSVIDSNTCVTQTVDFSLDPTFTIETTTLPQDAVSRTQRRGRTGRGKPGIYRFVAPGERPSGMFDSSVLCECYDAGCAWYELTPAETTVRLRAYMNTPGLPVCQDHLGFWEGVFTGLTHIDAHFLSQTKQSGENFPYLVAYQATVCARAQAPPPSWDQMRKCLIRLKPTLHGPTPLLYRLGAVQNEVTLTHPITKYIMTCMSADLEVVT
T1 sequence (P27958 1658-1711 partner, looked up, stated change not applied): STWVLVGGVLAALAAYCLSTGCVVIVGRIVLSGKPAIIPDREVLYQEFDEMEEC
Source text: Recombinant HCV NS3/4A Protease Complex FRET Peptide Assay
The purpose of this in vitro assay was to measure the inhibition of HCV NS3 protease complexes, derived from the BMS, H77C or J4l6S strains, as described below, by compounds of the present invention. This assay provides an indication of how effective compounds of the present invention would be in inhibiting HCV proteolytic activity.
Serum from an HCV-infected patient was obtained from Dr. T. Wright, San Francisco Hospital. An engineered full-length cDNA template of the HCV genome (BMS strain) was constructed from DNA fragments obtained by reverse transcription-PCR (RT-PCR) of serum RNA and using primers selected on the basis of homology between other genotype la strains. From the determination of the entire genome sequence, a genotype la was assigned to the HCV isolate according to the classification of Simmonds et al. (See P Simmonds, K A Rose, S Graham, S W Chan, F McOmish, B C Dow, E A Follett, P L Yap and H Marsden, J. Clin. Microbiol., 31(6), 1493-1503 (1993)). […] The infectious clones, H77C (1a genotype) and J4 L6S (1b genotype) were obtained from R. Purcell (NIH) and the sequences are published in Genbank (AAB67036, see Yanagi, M., Purcell, R. H., Emerson, S. U. and Bukh, J. Proc. Natl. Acad. Sci. U.S.A. 94(16),8738-8743 (1997); AF054247, see Yanagi, M., St Claire, M., Shapiro, M., Emerson, S. U., Purcell, R. H. and Bukh, J, Virology 244 (1), 161-172. (1998)).
The BMS, H77C and J4 L6S strains were used for production of recombinant NS3/4A protease complexes. DNA encoding the recombinant HCV NS3/4A protease complex (amino acids 1027 to 1711) for these strains were manipulated as described by P. Gallinari et al. (see Gallinari P, Paolini C, Brennan D, Nardi C, Steinkuhler C, De Francesco R. Biochemistry. 38(17):5620-32, (1999)). Briefly, a three-lysine solubilizing tail was added at the 3′-end of the NS4A coding region. The cysteine in the P1 position of the NS4A-NS4B cleavage site (amino acid 1711) was changed to a glycine to avoid the proteolytic cleavage of the lysine tag. Furthermore, a cysteine to serine mutation was introduced by PCR at amino acid position 1454 to prevent the autolytic cleavage in the NS3 helicase domain. The variant DNA fragment was cloned in the pET21b bacterial expression vector (Novagen) and the NS3/4A complex was expressed in Escherichia coli strain BL21 (DE3) (Invitrogen) following the protocol described by P. Gallinari et al. (see Gallinari P, Brennan D, Nardi C, Brunetti M, Tomei L, Steinkuhler C, De Francesco R., J Virol. 72(8):6758-69 (1998)) with modifications. Briefly, NS3/4A expression was induced with 0.5 mM Isopropyl β-D-1-thiogalactopyranoside (IPTG) for 22 hr at 20° C. A typical fermentation (10 L) yielded approximately 80 g of wet cell paste. The cells were resuspended in lysis buffer (10 mL/g) consisting of 25 mM N-(2-Hydroxyethyl)Piperazine-N′-(2-Ethane Sulfonic acid) (HEPES), pH7.5, 20% glycerol, 500 mM Sodium Chloride (NaCl), 0.5% Triton-X100, 1 ug/ml lysozyme, 5 mM Magnesium Chloride (MgCl2), 1 ug/ml DnaseI, 5 mM β-Mercaptoethanol (βME), Protease inhibitor—Ethylenediamine Tetraacetic acid (EDTA) free (Roche), homogenized and incubated for 20 mins at 4° C. The homogenate was sonicated and clarified by ultra-centrifugation at 235000 g for lhr at 4° C. Imidazole was added to the supernatant to a final concentration of 15 mM and the pH adjusted to 8.0. The crude protein extract was loaded on a Nickel—Nitrilotriacetic acid (Ni—NTA) column pre-equilibrated with buffer B (25 mM HEPES, pH8.0, 20% glycerol, 500 mM NaCl, 0.5% Triton-X100, 15 mM imidazole, 5 mM βME). The sample was loaded at a flow rate of 1 mL/min. The column was washed with 15 column volumes of buffer C (same as buffer B except with 0.2% Triton-X100). The protein was eluted with 5 column volumes of buffer D (same as buffer C except with 200 mM Imidazole). […]

[2] = system: HCV replicon in Huh7 cells; assay: HCV replicon cell-based assay (FRET); parameters: species or system HCV strain 1B; details: Hepatitis C virus, Huh-7; replicon, activity range; read-out: EC50 a, b, c (Activity Table)
Source text: HCV Replicon Cell-based Assay
An HCV replicon whole cell system was established as described by Lohmann V, Korner F, Koch J, Herian U, Theilmann L, Bartenschlager R., Science 285(5424): 110-3 (1999). This system enabled us to evaluate the effects of our HCV Protease compounds on HICV RNA replication. Briefly, using the HCV strain 1B sequence described in the Lohmann paper (Assession number: AJ238799), an HCV cDNA was generated encoding the 5′ internal ribosome entry site (IRES), the neomycin resistance gene, the EMCV (encephalomyocarditis virus)-IRES and the HCV nonstructural proteins, NS3-NS5B, and 3′ non-translated region (NTR). In vitro transcripts of the cDNA were transfected into the human hepatoma cell line, Huh7. […] Resulting cell lines were characterized for positive and negative strand RNA production and protein production over time.
Huh7 cells, constitutively expressing the HCV replicon, were grown in Dulbecco's Modified Eagle Media (DMEM) containing 10% Fetal calf serum (FCS) and 1 mg/ml G418 (Gibco-BRL). Cells were seeded the night before (1.5×10^4 cells/well) in 96-well tissue-culture sterile plates. Compound and no compound controls were prepared in DMEM containing 4% FCS, 1:100 Penicillin/Streptomysin, 1:100 L-glutamine and 5% DMSO in the dilution plate (0.5% DMSO final concentration in the assay). Compound/DMSO mixes were added to the cells and incubated for 4 days at 37° C. After 4 days, plates were rinsed thoroughly with Phosphate-Buffered Saline (PBS) (3 times 150 μl). The cells were lysed with 25 μl of a lysis assay reagent containing the FRET peptide (RET S1, as described for the in vitro enzyme assay). The lysis assay reagent was made from 5× cell Luciferase cell culture lysis reagent(Promega #E153A) diluted to 1× with distilled water, NaCl added to 150 mM final, the FRET peptide diluted to 10 μM final from a 2 mM stock in 100% DMSO. The plate was then placed into the Cytofluor 4000 instrument which had been set to 340 nm excitation/490 emission, automatic mode for 21 cycles and the plate read in a kinetic mode. EC50 determinations were carried out as described for the IC50 determinations.

**Q.** How did the IC50 [1] turn out when `C=CC1C[C@]1(NC(=O)[C@@H]1C[C@@H](Oc2cc(-c3ccccc3)nc3cc(OC)ccc23)CN1C(=O)[C@@H](NC(=O)OC(C)(C)C)C(C)(C)C)C(=O)NS(=O)(=O)c1cc(Cl)c(Cl)s1` (stereo in doubt) [Compound 8, {1-[2-{1-[4,5-dichlorothiophene-2-sulfonylaminocarbonyl]-2-vinylcyclopropylcarbamoyl}-4-(7-methoxy-2-phenyl-quinolin-4-yloxy)pyrrolidine-1-carbonyl]-2,2-dimethylpropyl}carbamic acid tert-butyl ester] was run?
**A.** < 100 nM

**Q.** What about the EC50 [2] of the same compound?
**A.** 100 to 1000 nM

**Q.** What does the source list for `C=CC1C[C@]1(NC(=O)[C@@H]1C[C@@H](Oc2cc(-c3ccccc3)nc3cc(OC)ccc23)CN1C(=O)[C@@H](NC(=O)OC(C)(C)C)C(C)(C)C)C(=O)NS(=O)(=O)c1sc(C)nc1C` (stereo in doubt) [Compound 9, {1-[2-{1-[2,4-dimethylthiazole-5-sulfonylaminocarbonyl]-2-vinylcyclopropylcarbamoyl}-4-(7-methoxy-2-phenyl-quinolin-4-yloxy)pyrrolidine-1-carbonyl]-2,2-dimethylpropyl}carbamic acid tert-butyl ester]?
**A.** IC50 [1]: < 100 nM; EC50 [2]: 100 to 1000 nM

**Q.** With `C=CC1C[C@]1(NC(=O)[C@@H]1C[C@@H](Oc2cc(-c3ccccc3)nc3cc(OC)ccc23)CN1C(=O)[C@@H](NC(=O)OC(C)(C)C)C(C)(C)C)C(=O)NS(=O)(=O)c1ccc(C)cn1` (stereo in doubt) [Compound 10, (1-{4-(7-Methoxy-2-phenyl-quinolin-4-yloxy)-2-[1-(5-methyl-pyridine-2-sulfonylaminocarbonyl)-2-vinylcyclopropylcarbamoyl]pyrrolidine-1-carbonyl}-2,2-dimethylpropyl)carbamic acid tert-butyl ester] as the compound, how does the IC50 [1] read?
**A.** < 100 nM

**Q.** What about the EC50 [2] of the same compound?
**A.** 100 to 1000 nM

**Q.** How did the IC50 [1] turn out when `C=CC1C[C@]1(NC(=O)[C@@H]1C[C@@H](Oc2cc(-c3ccccc3)nc3cc(OC)ccc23)CN1C(=O)[C@@H](NC(=O)OC(C)(C)C)C(C)(C)C)C(=O)NS(=O)(=O)c1nnc(NC(C)=O)s1` (stereo in doubt) [Compound 12, {1-[2-[1-(5-Acetylamino-[1,3,4]thiadiazole-2-sulfonylaminocarbonyl)-2-vinylcyclopropylcarbamoyl]-4-(7-methoxy-2-phenyl-quinolin-4-yloxy)-pyrrolidine-1-carbonyl]-2,2-dimethylpropyl}carbamic acid tert-butyl ester] was run?
**A.** 100 to 1000 nM

**Q.** And the EC50 [2]?
**A.** 1000 to 10000 nM

**Q.** Which IC50 [1] does the source give for `C=CC1C[C@]1(NC(=O)[C@@H]1C[C@@H](Oc2cc(-c3ccccc3)nc3cc(OC)ccc23)CN1C(=O)[C@@H](NC(=O)OC(C)(C)C)C(C)(C)C)C(=O)NS(=O)(=O)c1c(C)noc1C` (stereo in doubt) [Compound 14, {1-[2-[1-(3,5-Dimethylisoxazole-4-sulfonylaminocarbonyl)-2-vinyl-cyclopropylcarbamoyl]-4-(7-methoxy-2-phenyl-quinolin-4-yloxy)-pyrrolidine-1-carbonyl]-2,2-dimethyl-propyl}-carbamic acid tert-butyl ester] here?
**A.** < 100 nM

**Q.** What about the EC50 [2] of the same compound?
**A.** 100 to 1000 nM

**Q.** Which results are given for `C=CC1C[C@]1(NC(=O)[C@@H]1C[C@@H](Oc2cc(-c3ccccc3)nc3cc(OC)ccc23)CN1C(=O)[C@@H](NC(=O)OC(C)(C)C)C(C)(C)C)C(=O)NS(=O)(=O)c1nc2ccc(OCC)cc2s1` (stereo in doubt) [Compound 15, {1-[2-[1-(6-Ethoxybenzothiazole-2-sulfonylaminocarbonyl)-2-vinyl-cyclopropylcarbamoyl]-4-(7-methoxy-2-phenyl-quinolin-4-yloxy)-pyrrolidine-1-carbonyl]-2,2-dimethylpropyl}-carbamic acid tert-butyl ester]?
**A.** IC50 [1]: 100 to 1000 nM; EC50 [2]: 1000 to 10000 nM

**Q.** How did the IC50 [1] turn out when `C=CC1C[C@]1(NC(=O)[C@@H]1C[C@@H](Oc2cc(-c3ccccc3)nc3cc(OC)ccc23)CN1C(=O)[C@@H](NC(=O)OC(C)(C)C)C(C)(C)C)C(=O)NS(=O)(=O)c1cc([N+](=O)[O-])c(Cl)s1` (stereo in doubt) [Compound 16, {1-[2-[1-(5-Chloro-4-nitro-thiophene-2-sulfonylaminocarbonyl)-2-vinylcyclopropylcarbamoyl]-4-(7-methoxy-2-phenyl-quinolin-4-yloxy)-pyrrolidine-1-carbonyl]-2,2-dimethyl-propyl}carbamic acid tert-butyl ester] was run?
**A.** < 100 nM

**Q.** And the EC50 [2]?
**A.** 100 to 1000 nM

**Q.** Which results are given for `C=CC1C[C@]1(NC(=O)[C@@H]1C[C@@H](Oc2cc(-c3ccccc3)nc3cc(OC)ccc23)CN1C(=O)[C@@H](NC(=O)OC(C)(C)C)C(C)(C)C)C(=O)NS(=O)(=O)c1ccc(-c2cc(C(F)(F)F)nn2C)s1` (stereo in doubt) [Compound 17, [1-(4-(7-Methoxy-2-phenyl-quinolin-4-yloxy)-2-{1-[5-(2-methyl-5-trifluoromethyl-2H-pyrazol-3-yl)thiophene-2-sulfonylaminocarbonyl]-2-vinyl-cyclopropylcarbamoyl}-pyrrolidine-1-carbonyl)-2,2-dimethylpropyl]carbamic acid tert-butyl ester]?
**A.** IC50 [1]: < 100 nM; EC50 [2]: 100 to 1000 nM
